Values of other authors, collected in patent US20040185170A1, “Method for coating drug-containing particles and formulations and dosage units formed therefrom” (priority 2003, published 2004).

conditions: coating material; from CRC Handbook of Chemistry and Physics, 63rd Edition

Row | ΔHvap (heat of vaporization) | SMILES
1 | 14,853.5 g cal mol^−1 | CCCCCCCCCCCC(=O)OC [Methyl laurate]
2 | 16,051.0 g cal mol^−1 | CCCCCCCCCCCCCC(=O)OC [Methyl myristate]
3 | 19,372.6 g cal mol^−1 | CCCCCCCCCC(=O)O [Capric acid]
4 | 19,306.6 g cal mol^−1 | CCCCCCCCCCCCCCCCCC(=O)O [Stearic acid]
5 | 17,003.5 g cal mol^−1 | CCCCCCCCCCCCCCCC(=O)OC [Methyl palmitate]
6 | 19,214.8 g cal mol^−1 | CCCCCCCCCCCCC(=O)O [Tridecanoic acid]
7 | 14,483.4 g cal mol^−1 | CCCCCCCCCCCCCCCCO [Cetyl alcohol]
8 | 18,380.1 g cal mol^−1 | CCCCCCCCCCCCCC(=O)O [Myristic acid]
9 | 20,326.7 g cal mol^−1 | CCCCCCCC/C=C\CCCCCCCC(=O)O [Oleic acid]
10 | 16,585.3 g cal mol^−1 | CCCCCCCCCCCC(=O)O [Lauric acid]
11 | 17,603.6 g cal mol^−1 | CCCCCCCCCCCCCCCC(=O)O [Palmitic acid]

conditions: normal atmospheric pressure

Row | temperature at which it slowly volatilizes | SMILES
12 | 90-100 °C | CCCCCCCCCCCCCCCCCC(=O)O [Stearic acid]
